From patent publication US12569459B2, “Compositions and methods for treating pulmonary edema or lung inflammation” (priority 2020, dated 2026)

System: RLE-6TN cells
Experiment: RLE-6TN cell survival under hyperoxia, viable cells by trypan blue exclusion
Type: cell-based, rat
Method: FIG. 7. […] The cells were cultured in DMEM/F12 with 10% FBS in 21% O2 and 5% CO2 overnight. […] The viable cells are counted immediately after 72-hour hyperoxia exposure. Cell viability is assessed with trypan blue. Viable cells under specific conditions are presented as a percentage of the cell number from hyperoxia alone. Data are mean±s.d. of four independent experiments with *=P<0.05; **=P<0.01.
FIG. 8. […] In both (A) and (B), the number of viable cells under specific conditions is presented as a percentage of the cell number related to hyperoxia alone in the same experiment. Data are mean±s.d. of four independent experiments with *=P<0.05; **=P<0.01.
FIG. 10. HO-1 Upregulation is required for T3-increased RLE-6TN cell survival in hyperoxia. […] The cells were then collected for Western Blot analysis. (B) The cells were incubated in 21% O2 and 5% CO2 for 72 hours in the present of HO-1 inhibitor Tin Protoporphyrin IX(10^−6 M) tinT3 (10^−6 M). […] Cell viability is assessed with trypan blue. The number of viable cells under specific conditions is presented as a percentage of the cell number related to hyperoxia alone. Data are mean±s.d. of three independent experiments with *=P<0.05; **=P<0.01.
FIG. 11. PI3K inhibitor wortmannin blocked T3-induced cell survival in hyperoxia. […] Cell viability is assessed with trypan blue. The number of viable cells under specific conditions is presented as a percentage of the cell number related to hyperoxia alone. Data are mean±s.d. of four independent experiments with *=P<0.05; **=P<0.01.
At the end of the hyperoxia exposure period, the viable cells were counted by trypan blue dye exclusion.

| Compound | Effect on AT2 cell number in room air (21% O2 72 hours, 10^−6 M) | Effect on T3-caused increase in cell survival in hyperoxia (90% O2 72 hours, T3 10^−6 M, Tin Protoporphyrin 10^−6 M) | Effect on cell survival under hyperoxia (90% oxygen 72 hours, 10^−6 M) |
| --- | --- | --- | --- |
| C=Cc1c2[n-]c(c1C)/C=c1\[n-]/c(c(C)c1C=C)=C\c1[n-]c(c(CCC(=O)O)c1C)C=c1[n-]/c(c(C)c1CCC(=O)O)=C\2.[Sn+4] [Tin protoporphyrin, Tin Protoporphyrin IX] | had no effect on AT2 cell number in room air | blocked the T3-caused increase in cell survival and augmented cell death | – |
| N[C@@H](Cc1ccc(Oc2cc(I)c(O)c(I)c2)c(I)c1)C(=O)O [rT3] | – | – | had no role in cell survival |
